According to paper PMC3822934 (Journal of Cellular and Molecular Medicine, 2012):

Assay: Comparison of blood glucose lowering with glibenclamide
Assay type: in vivo
Conditions: data not shown

In the case of `COc1ccc(Cl)cc1C(=O)NCCc1ccc(S(=O)(=O)NC(=O)NC2CCCCC2)cc1` [glibenclamide], the “blood glucose lowering activity compared with EH-36” value is reported as “comparable blood glucose lowering activities” and the “onset of the effect compared with EH-36” value is reported as “faster”.
